According to patent publication US20220041582A1, “ISOXAZOLINE COMPOUNDS FOR CONTROLLING INVERTEBRATE PESTS” (FMC Corporation, priority 2018, published 2022):
Read-outs that look alike come from different tables or passages of the source.

Columns and labels:
Format in all cases: in vivo
[1] = tested on: potato leafhopper (Empoasca fabae (Harris)); test: Test D: control of potato leafhopper through contact and/or systemic means; conditions: 144 h
Procedure: (§1) Formulation and Spray Methodology for Tests A-H
(§2) Test compounds were formulated using a solution containing 10% acetone, 90% water and 300 ppm Activator 90® non-ionic surfactant (Loveland Products, Loveland, Colo., USA). The formulated compounds were applied in 1 mL of liquid through an atomizer nozzle positioned 1.27 cm (0.5 inches) above the top of each test unit. Test compounds were sprayed at the rates indicated, and each test was replicated three times.
[…] White sand was added to the top of the soil, and one of the primary leaves was excised prior to application of the test compound.
Test compounds were formulated and sprayed at 250, 50 and 10 ppm. After spraying of the formulated test compound, the test units were allowed to dry for 1 hour before they were post-infested with 5 potato leafhoppers (18-to-21-day-old adults). A black, screened cap was placed on the top of the test unit, and the test units were held for 6 days in a growth chamber at 20° C. and 70% relative humidity. Each test unit was then visually assessed for insect mortality.

[2] = tested on: corn planthopper (Peregrinus maidis (Ashmead)); test: Test C: control of corn planthopper through contact and/or systemic means; conditions: for mortality at 50 ppm: Peregrinus maidis, 144 h
Procedure: as §1, §2
For evaluating control of corn planthopper (Peregrinus maidis (Ashmead)) through contact and/or systemic means, the test unit consisted of a small open container with a 3-4-day-old corn (maize) plant inside. White sand was added to the top of the soil prior to application of the test compound.
Test compounds were formulated and sprayed at 50 and 10 ppm. After spraying of the formulated test compound, the test units were allowed to dry for 1 h before they were post-infested with ˜15-20 nymphs (18-to-21-day-old). A black, screened cap was placed on the top of each test unit, and the test units were held for 6 days in a growth chamber at 22-24° C. and 50-70% relative humidity. Each test unit was then visually assessed for insect mortality.

[3] = tested on: sweetpotato whitefly (Bemisia tabaci (Gennadius)); test: Test G: control of sweetpotato whitefly through contact and/or systemic means; conditions: 312 h
Procedure: as §1, §2
For evaluating control of the sweetpotato whitefly (Bemisia tabaci (Gennadius)) through contact and/or systemic means, the test unit consisted of a small open container with a 12-14-day-old cotton plant inside. Prior to the spray application, both cotyledons were removed from the plant, leaving one true leaf for the assay. Adult whiteflies were allowed to lay eggs on the plant and then were removed from the test unit. Cotton plants infested with at least 15 eggs were submitted to the test for spraying.
Test compounds were formulated and sprayed at 250, 50 and 10 ppm. After spraying, the test units were allowed to dry for 1 hour. The cylinders were then removed, and the units were taken to a growth chamber and held for 13 days at 28° C. and 50-70% relative humidity. Each test unit was then visually assessed for insect mortality.

[4] = tested on: green peach aphid (Myzus persicae (Sulzer)); test: Test E: control of green peach aphid through contact and/or systemic means; conditions: 144 h
Procedure: as §1, §2
For evaluating control of green peach aphid (Myzus persicae (Sulzer)) through contact and/or systemic means, the test unit consisted of a small open container with a 12-15-day-old radish plant inside. This was pre-infested by placing on a leaf of the test plant 30-40 aphids on a piece of leaf excised from a culture plant (cut-leaf method). The aphids moved onto the test plant as the leaf piece desiccated. After pre-infestation, the soil of the test unit was covered with a layer of sand.
Test compounds were formulated and sprayed at 250, 50 and 10 ppm. After spraying of the formulated test compound, each test unit was allowed to dry for 1 hour and then a black, screened cap was placed on top. The test units were held for 6 days in a growth chamber at 19-21° C. and 50-70% relative humidity. Each test unit was then visually assessed for insect mortality.

[5] = tested on: cotton melon aphid (Aphis gossypii (Glover)); test: Test F: control of cotton melon aphid through contact and/or systemic means; conditions: 144 h
Procedure: as §1, §2
[…] This was pre-infested with 30-40 insects on a piece of leaf according to the cut-leaf method, and the soil of the test unit was covered with a layer of sand.
Test compounds were formulated and sprayed at 250, 50 and 10 ppm. After spraying, the test units were maintained in a growth chamber for 6 days at 19° C. and 70% relative humidity. Each test unit was then visually assessed for insect mortality.

[6] = tested on: Western Flower Thrips (Frankliniellla occidentalis (Pergande)); test: Test H: control of Western Flower Thrips through contact and/or systemic means; conditions: 50 ppm spray; 6 days; 30% or less plant damage and/or 100% mortality
Procedure: as §1, §2
For evaluating control of the Western Flower Thrips (Frankliniellla occidentalis (Pergande)) through contact and/or systemic means, the test unit consisted of a small open container with a 8-9-day-old Soleil bean plant inside.
Test compounds were formulated and sprayed at 250, 50, 10 and 2 ppm. After spraying, the test units were allowed to dry for 1 hour, and then ˜60 thrips (adults and nymphs) were added to each unit. A black, screened cap was placed on top, and the test units were held for 6 days at 25° C. and 45-55% relative humidity. Each test unit was then visually assessed for plant damage and insect mortality.

[7] = 50 ppm spray, 6 days, read-out: mortality
[8] = 50 ppm spray, 13 days, read-out: mortality
[9] = 10 ppm spray, 6 days, read-out: mortality

Row | SMILES | mortality at 50 ppm [1] | mortality at 50 ppm [3] | mortality at 10 ppm [4] | mortality at 50 ppm [4] | mortality at 10 ppm [5] | mortality at 50 ppm [5] | mortality at 50 ppm [2, 7] | mortality at 50 ppm [4, 7] | mortality at 50 ppm [5, 7] | mortality at 10 ppm [3] | other results
1 | COC(=O)[C@@H](C)NC(=O)c1ccc(C2=NOC(c3cc(Cl)c(F)c(Cl)c3)(C(F)(F)F)C2)c2ccncc12 (stereo partly drawn) [Compound 6] | ≥ 80% | ≥ 50% | ≥ 80% | ≥ 80% | ≥ 80% | ≥ 80% |  |  |  |  | mortality at 50 ppm [2]: ≥ 80%
2 | C#CCNC(=O)c1ccc(C2=NOC(c3ccc(F)c(C(F)(F)F)c3)(C(F)(F)F)C2)c2ccncc12 (stereo not drawn) [Compound 74, 5-[5-[4-fluoro-3-(trifluoromethyl)phenyl]-4,5-dihydro-5-(trifluoromethyl)-3-isoxazolyl]-N-2-propyn-1-yl-8-isoquinolinecarboxamide] |  |  |  |  |  |  | ≥ 80% | ≥ 80% | ≥ 80% |  | mortality at 50 ppm [1, 7]: ≥ 80%; mortality at 50 ppm [3, 8]: ≥ 50%
3 | O=C(NCc1ncccn1)c1ccc(C2=NOC(c3ccc(F)c(C(F)(F)F)c3)(C(F)(F)F)C2)c2ccncc12 (stereo not drawn) [Compound 76] |  |  |  |  |  |  |  |  |  |  | mortality ([2]; 10 ppm spray, 6 days): at least 80%
4 | O=C(NCC1CC1)c1ccc(C2=NOC(c3ccc(F)c(C(F)(F)F)c3)(C(F)(F)F)C2)c2ccncc12 (stereo not drawn) [Compound 58, N-(cyclopropylmethyl)-5-[5-[4-fluoro-3-(trifluoromethyl)phenyl]-4,5-dihydro-5-(trifluoromethyl)-3-isoxazolyl]-8-isoquinolinecarboxamide] |  |  |  |  |  |  | ≥ 80% | ≥ 80% | ≥ 80% |  | mortality at 50 ppm [1, 7]: ≥ 80%; mortality at 50 ppm [3, 8]: ≥ 50%; mortality at 10 ppm [4, 9]: ≥ 80%; mortality at 10 ppm [5, 9]: ≥ 80%
5 | O=C(NC1CC1)c1ccc(C2=NOC(c3cc(Cl)cc(C(F)(F)F)c3)(C(F)(F)F)C2)c2ccncc12 (stereo not drawn) [Compound 35, 5-[5-[3-chloro-5-(trifluoromethyl)phenyl]-4,5-dihydro-5-(trifluoromethyl)-3-isoxazolyl]-N-cyclopropyl-8-isoquinolinecarboxamide] | ≥ 80% | ≥ 50% | ≥ 80% | ≥ 80% | ≥ 80% | ≥ 80% |  |  |  | ≥ 50% | mortality at 10 ppm [1]: ≥ 80%; mortality at 50 ppm [2]: ≥ 80%
6 | CSCCNC(=O)c1ccc(C2=NOC(c3cccc(C(F)(F)F)c3)(C(F)(F)F)C2)c2ccncc12 (stereo not drawn) [Compound 29] |  |  |  |  |  |  | ≥ 80% | ≥ 80% | ≥ 80% |  | 
7 | CCN1OC[C@@H](NC(=O)c2ccc(C3=NOC(c4cc(Cl)cc(Cl)c4)(C(F)(F)F)C3)c3ccncc23)C1=O (stereo partly drawn) [Compound 1] |  | ≥ 50% |  |  |  | ≥ 80% |  |  |  |  | mortality at 250 ppm [3]: ≥ 50%; mortality at 250 ppm [4]: ≥ 80%; mortality at 250 ppm [5]: ≥ 80%; control efficacy: plant damage (and/or 100% mortality) [6]: ≤ 30%
8 | O=C(NCc1ncccn1)c1ccc(C2=NOC(c3cc(Cl)c(F)c(Cl)c3)(C(F)(F)F)C2)c2ccncc12 (stereo not drawn) [Compound 4, 5-[5-(3,5-dichloro-4-fluorophenyl)-4,5-dihydro-5-(trifluoromethyl)-3-isoxazolyl]-N-(2-pyrimidinylmethyl)-8-isoquinolinecarboxamide] | ≥ 80% | ≥ 50% |  | ≥ 80% | ≥ 80% | ≥ 80% |  |  |  | ≥ 50% | mortality at 50 ppm [2]: ≥ 80%
9 | COCC(C)NC(=O)c1ccc(C2=NOC(c3cc(Cl)c(F)c(Cl)c3)(C(F)(F)F)C2)c2ccncc12 (stereo not drawn) [Compound 20] | ≥ 80% | ≥ 50% | ≥ 80% | ≥ 80% | ≥ 80% | ≥ 80% |  |  |  | ≥ 50% | 
10 | CC(C)NC(=O)c1ccc(C2=NOC(c3cc(Cl)c(F)c(Cl)c3)(C(F)(F)F)C2)c2ccncc12 (stereo not drawn) [Compound 28] | ≥ 80% | ≥ 50% | ≥ 80% | ≥ 80% | ≥ 80% | ≥ 80% |  |  |  | ≥ 50% | 
11 | N#CC1(CNC(=O)c2ccc(C3=NOC(c4cc(Cl)c(F)c(Cl)c4)(C(F)(F)F)C3)c3ccncc23)CC1 (stereo not drawn) [Compound 10] | ≥ 80% | ≥ 50% |  | ≥ 80% |  | ≥ 80% |  |  |  | ≥ 50% | 
12 | C[C@@H](NC(=O)c1ccc(C2=NOC(c3cc(Cl)c(F)c(Cl)c3)(C(F)(F)F)C2)c2ccncc12)c1ccccn1 (stereo partly drawn) [Compound 13] | ≥ 80% | ≥ 50% | ≥ 80% | ≥ 80% | ≥ 80% | ≥ 80% |  |  |  | ≥ 50% | mortality at 10 ppm [1]: ≥ 80%
13 | C#CCNC(=O)c1ccc(C2=NOC(c3cc(Cl)c(F)c(Cl)c3)(C(F)(F)F)C2)c2ccncc12 (stereo not drawn) [Compound 48, 5-[5-(3,5-dichloro-4-fluorophenyl)-4,5-dihydro-5-(trifluoromethyl)-3-isoxazolyl]-N-2-propyn-1-yl-8-isoquinolinecarboxamide] | ≥ 80% |  |  | ≥ 80% |  | ≥ 80% |  |  |  |  | mortality at 50 ppm [2]: ≥ 80%
14 | O=C(NCc1ncccn1)c1ccc(C2=NOC(c3cccc(C(F)(F)F)c3)(C(F)(F)F)C2)c2ccncc12 (stereo not drawn) [Compound 18] |  |  |  |  |  |  | ≥ 80% | ≥ 80% | ≥ 80% |  | mortality at 10 ppm [4, 9]: ≥ 80%
15 | O=C(NC1CC1)c1ccc(C2=NOC(c3ccc(F)c(C(F)(F)F)c3)(C(F)(F)F)C2)c2ccncc12 (stereo not drawn) [Compound 55, N-cyclopropyl-5-[5-[4-fluoro-3-(trifluoromethyl)phenyl]-4,5-dihydro-5-(trifluoromethyl)-3-isoxazolyl]-8-isoquinolinecarboxamide] |  |  |  |  |  |  | ≥ 80% | ≥ 80% | ≥ 80% |  | mortality at 50 ppm [1, 7]: ≥ 80%; mortality at 10 ppm ([3]; 10 ppm spray, 13 days, read-out: mortality): ≥ 50%; mortality at 50 ppm [3, 8]: ≥ 50%; mortality at 10 ppm [5, 9]: ≥ 80%
